Experimental findings from ChEMBL document CHEMBL3085716, “Hytramycins V and I, anti-Mycobacterium tuberculosis hexapeptides from a Streptomyces hygroscopicus strain” (J Nat Prod, 2013) are described below.

≈ marks a conversion by molar mass, not a printed value.

The test system of one test is Staphylococcus aureus. The test can be described thus: Antibacterial activity against Staphylococcus aureus ATCC 29213 after 16 hrs. Type of test: functional.
Another test has as its system Escherichia coli. The test can be described thus: Antibacterial activity against Escherichia coli ATCC 25922 after 16 hrs. Type of test: functional.
The test system of test [1] is Enterococcus faecalis. In words: Antibacterial activity against Enterococcus faecalis ATCC 29212 after 16 hrs. As to conditions: ATCC 29212, 16 h. Format: functional.
Test [2] concerns Enterococcus faecalis. In words: Antibacterial activity against Enterococcus faecalis ATCC 29212 at 10 ug/ml after 16 hrs. Format: functional. To be noted: ATCC 29212, 16 h.
The subject of a further test is Acinetobacter baumannii. The test can be described thus: Antibacterial activity against Acinetobacter baumannii ATCC BAA-747 after 16 hrs. Type of test: functional. As to conditions: for MIC90: ATCC BAA-747, 16 h.
The test system of the next test is Pseudomonas aeruginosa. In words: Antibacterial activity against Pseudomonas aeruginosa ATCC 27853 after 16 hrs. Format: functional. As to conditions: for MIC90: ATCC 27853, 16 h.
In test [3] the test system is Mycobacterium tuberculosis. In words: Antimycobacterial activity against Mycobacterium tuberculosis clinical isolate X005319 under normoxic condition after 7 days by MABA assay. Format: functional. To be noted: clinical isolate X005319, 168 h.
Test [4] concerns Mycobacterium tuberculosis. The test can be described thus: Antimycobacterial activity against Mycobacterium tuberculosis clinical isolate X003899 under normoxic condition after 7 days by MABA assay. Format: functional. As to conditions: clinical isolate X003899, 168 h. Background: Alamar Blue is a resazurin reagent that responds to reducing activity.
In another test the test system is Vero. The test can be described thus: Cytotoxicity against african green monkey Vero cells. Type of test: cell-based. To be noted: Chlorocebus sabaeus.
Test [5] has as its system Mycobacterium tuberculosis. In words: Antimycobacterial activity against Mycobacterium tuberculosis H37Rv under normoxic condition after 7 days by MABA assay in presence of 4% bovine serum albumin. Type of test: functional. To be noted: 168 h.
The test system of test [6] is Mycobacterium tuberculosis. The test can be described thus: Antimycobacterial activity against Mycobacterium tuberculosis clinical isolate X004244 under normoxic condition after 7 days by MABA assay. Format: functional. To be noted: clinical isolate X004244, 168 h.
For test [7], the system named is Mycobacterium tuberculosis. The test can be described thus: Antimycobacterial activity against Mycobacterium tuberculosis H37Rv under normoxic condition after 7 days by MABA assay. Type of test: functional.
For test [8], the system named is Mycobacterium tuberculosis. The test can be described thus: Antimycobacterial activity against Mycobacterium tuberculosis clinical isolate X001354 under normoxic condition after 7 days by MABA assay. Format: functional. To be noted: clinical isolate X001354, 168 h.
Test [9] deals with Mycobacterium tuberculosis. In words: Antimycobacterial activity against Mycobacterium tuberculosis clinical isolate X005282 under normoxic condition after 7 days by MABA assay. Format: functional. To be noted: clinical isolate X005282, 168 h.
Test [10] deals with Mycolicibacterium smegmatis. The test can be described thus: Antimycobacterial activity against Mycobacterium smegmatis ATCC 700084 under normoxic condition after 72 hrs by MABA assay. Format: functional. As to conditions: ATCC 700084, 72 h.
In test [11] the test system is Mycobacterium tuberculosis. In words: Antimycobacterial activity against Mycobacterium tuberculosis H37Rv under normoxic condition after 7 days by MABA assay in presence of 10% fetal bovine serum. Format: functional. As to conditions: 168 h.
Test [12] concerns Mycobacterium tuberculosis. The test can be described thus: Antimycobacterial activity against Mycobacterium tuberculosis clinical isolate X004439 under normoxic condition after 7 days by MABA assay. Type of test: functional. To be noted: clinical isolate X004439, 168 h.
The next test relates to Streptococcus pneumoniae. In words: Antibacterial activity against Streptococcus pneumoniae ATCC 49619 after 20 hrs. Type of test: functional. As to conditions: ATCC 49619, 20 h.
[13] abbreviates: Mycobacterium tuberculosis, H37Rv, 168 h.

As usually defined, the MIC90 is the lowest concentration that inhibits either 90% of growth or 90% of the strains tested, depending on the study. The term inhibition denotes how much of the control response was suppressed. As to `CC1(C)S[C@@H]2[C@H](NC(=O)[C@H](N)c3ccccc3)C(=O)N2[C@H]1C(=O)O` [AMPICILLIN], the MIC90 is 1.2 µg/mL (≈ 3.43 µM) with Staphylococcus aureus (ATCC 29213, 16 h); 8.9 µg/mL (≈ 25.5 µM) with Escherichia coli (ATCC 25922, 16 h); over 10 µg/mL in the test on Enterococcus faecalis [1]. The same molecule gave an inhibition at 10 µg/mL in the test with Enterococcus faecalis [2] of 66%.
For the molecule GENTAMICIN, the MIC>90 with Acinetobacter baumannii worked out at 0.2 µg/mL; with Staphylococcus aureus, 0.6 µg/mL; with Escherichia coli, 1.2 µg/mL; against Pseudomonas aeruginosa, 0.5 µg/mL.
Consider `CN(C)[C@@H]1C(O)=C(C(N)=O)C(=O)[C@@]2(O)C(O)=C3C(=O)c4c(O)ccc(Cl)c4[C@@H](O)[C@H]3C[C@@H]12` [DEMECLOCYCLINE], for which the MIC90 against Acinetobacter baumannii amounted to 0.1 µg/mL (≈ 0.215 µM).
`CN(C)c1ccc(O)c2c1C[C@H]1C[C@H]3[C@H](N(C)C)C(O)=C(C(N)=O)C(=O)[C@@]3(O)C(O)=C1C2=O` [MINOCYCLINE] registered an MIC90 in the test on Acinetobacter baumannii of 0.2 µg/mL (≈ 0.437 µM).
By IC50 is commonly meant the midpoint of a concentration-inhibition curve. Consider `CO[C@H]1/C=C/O[C@@]2(C)Oc3c(C)c(O)c4c(O)c(c(/C=N/N5CCN(C)CC5)c(O)c4c3C2=O)NC(=O)/C(C)=C\C=C\[C@H](C)[C@H](O)[C@@H](C)[C@@H](O)[C@@H](C)[C@H](OC(C)=O)[C@@H]1C` [RIFAMPIN], for which the MIC90 in [3] was 0.1 µg/mL (≈ 0.122 µM); in test [4], 0.1 µg/mL (≈ 0.122 µM); in [5], 0.02 µg/mL; in test [6], 0.1 µg/mL (≈ 0.122 µM); with Enterococcus faecalis [1] it was 0.2 µg/mL (≈ 0.243 µM); in test [7] (setting [13]) it was under 0.02 µg/mL. Besides, the MIC90 is 0.02 µg/mL (≈ 0.0243 µM) in test [8]; 0.03 µg/mL (≈ 0.0365 µM) in [9]; under 0.3 µg/mL in test [10]; under 0.02 µg/mL in test [11]; 17.8 µg/mL (≈ 21.6 µM) against Pseudomonas aeruginosa; 0.02 µg/mL (≈ 0.0243 µM) in test [12]. In the test on Streptococcus pneumoniae, this molecule returned an MIC90 of under 0.01 µg/mL. Further, in the test with Vero, the IC50 amounted to 143 µg/mL (≈ 174 µM). In test [7], the MBC90 is 0.1 µg/mL (≈ 0.122 µM).
Turning to `O=C(O)c1cn(C2CC2)c2cc(N3CCNCC3)c(F)cc2c1=O` [CIPROFLOXACIN], the MIC90 with Enterococcus faecalis [1] came to 4.9 µg/mL (≈ 14.8 µM); with Pseudomonas aeruginosa it was 0.2 µg/mL (≈ 0.604 µM).
One may read the MIC as the lowest concentration found to suppress growth. In turn, `CC(C)[C@H]1NC(=O)[C@@H]2C[C@@]3(O)c4ccc(Cl)cc4N[C@H]3N2C(=O)[C@H]2CCCNN2C(=O)[C@H](C)N(C)C(=O)[C@H]2CCCNN2C(=O)[C@@H]2CCCNN2C1=O` gave an MIC in test [7] (setting [13]) of 18.6 µg/mL (≈ 24.6 µM).
In the case of `NCC[C@H](O)C(=O)N[C@@H]1C[C@H](N)[C@@H](O[C@H]2O[C@H](CN)[C@@H](O)[C@H](O)[C@H]2O)[C@H](O)[C@H]1O[C@H]1O[C@H](CO)[C@@H](O)[C@H](N)[C@H]1O` [AMIKACIN], the MIC90 against Pseudomonas aeruginosa is 1.8 µg/mL (≈ 3.07 µM).
Take `CC(C)/N=c1\cc2n(-c3ccc(Cl)cc3)c3ccccc3nc-2cc1Nc1ccc(Cl)cc1` [CLOFAZIMINE]: in test [10], the MIC90 was determined as 1.1 µg/mL (≈ 2.32 µM).
For `CN[C@H](CC(C)C)C(=O)N[C@H]1C(=O)N[C@@H](CC(N)=O)C(=O)N[C@H]2C(=O)N[C@H]3C(=O)N[C@H](C(=O)N[C@H](C(=O)O)c4cc(O)cc(O)c4-c4cc3ccc4O)[C@H](O)c3ccc(c(Cl)c3)Oc3cc2cc(c3O[C@@H]2O[C@H](CO)[C@@H](O)[C@H](O)[C@H]2O[C@H]2C[C@](C)(N)[C@H](O)[C@H](C)O2)Oc2ccc(cc2Cl)[C@H]1O` [VANCOMYCIN], the MIC90 came out at 2.3 µg/mL (≈ 1.59 µM) in the test on Enterococcus faecalis [1] and 0.1 µg/mL (≈ 0.069 µM) against Streptococcus pneumoniae.
